Square brackets hold non-standard residues; d marks the D form. Cit = NC(=O)NCCC[C@H](N)C(=O)O
How the values were obtained:
[1] = system: serum from a patient suffering from RA; experiment: Dot-blot of peptides and fil-gst before and after PAD, serum from an RA patient; type: binding, human; conditions: serum 1/2000
Protocol: (§1) These 2 peptides, as well as fil-gst, were citrullinated by the action of PAD, for 30 minutes at 50° C., in the same reaction medium as that indicated in Example 2. The specific conditions for each peptide, and for the fil-gst are the following: • peptide S-47-S (SEQ ID NO:3): 4 mU/μmol arginine • peptide S-35-R (SEQ ID NO:4): 2.7 mU/μmol arginine • fil-gst as indicated in Example 2.
(§2) The reactivity of each peptide and that of fil-gst, before and after action of the enzyme, towards the monoclonal antibody AHF4, and the serum from a patient suffering from RA, is compared by dot-blot.
(§3) The operating conditions are the following: • 0.5 μg by deposition of each antigen (peptides, fil-gst, acido-neutral variants of filaggrin (AVF)) • nitrocellulose treatment 45 minutes at 80° C., before immunodetection • RA serum used at the dilution of 1/2000; monoclonal antibody AHF4 used at a concentration of 0.2 μg/ml

[2] = system: anti-filaggrin autoantibodies (AFAs); experiment: ELISA of citrullinated and noncitrullinated peptides coated on microtiter plates; type: binding, human
Protocol: The reactivity of each citrullinated and noncitrullinated peptide was tested respectively in relation to a normal serum, to two sera from RA patients, to anti-filaggrin antibodies (AFAs) purified from a pool of 45 sera from RA patients and to anti-filaggrin antibodies purified from 12 sera from RA patients.
The wells of NUNC MAXISORP microtiter plates were respectively coated with the aid of the noncitrullinated and citrullinated peptides E-12-D (SEQ ID NO:6) and E-12-H (SEQ ID NO:5), diluted to a concentration of 5 μg/ml in a PBS buffer (pH: 7.4) and incubated overnight at 4° C. (final volume: […]). The wells were saturated for 30 minutes at 37° C. in PBS-Tween 20, 0.05%, 2.5% gelatin, 200 μl/well. The negative control serum (normal serum) was diluted 1/120. The antifilaggrin antibodies were diluted in PBS-Tween 20, 0.05%-0.5% gelatin (PBS TG) such that the final anti-filaggrin autoantibody concentrations are those indicated in the accompanying Table I. The negative control serum, the RA sera and the anti-filaggrin antibodies were added (final volume: 100 μl/well) and incubated for 1 hour at 37° C. and overnight at 4° C. Peroxidase-labeled goat antibodies anti-gamma heavy chains of the human immunoglobulins (marketed by the company SOUTHERN BIOTECHNOLOGIES) were added to each well (dilution in PBSTG: 1/2000, final volume: 100 μl/well) and incubated for 1 hour at 37° C.
The results presented in the accompanying Table I are given as a ratio of OD at 492 nm: citrullinated peptide signal/noncitrullinated peptide signal.

monoclonal antibody AHF4 = experiment: Dot-blot of peptides and fil-gst before and after PAD, monoclonal antibody AHF4; type: binding; conditions: 0.5 μg antigen per deposit, AHF4 0.2 μg/ml
Protocol: as §1, §2, §3

[3] = system: anti-filaggrin monoclonal antibody AHF2; experiment: Immunoblot of fil-gst deiminated in vitro by PAD, revealed with monoclonal antibody AHF2; type: binding; conditions: AHF2 0.2 μg/ml
Protocol: (§4) The mixture of the 9 fragments is subjected to deimination in vitro by peptidylarginine deiminase.
(§5) A rabbit muscle peptidylarginine deiminase preparation (681 U/ml) marketed by TAKARA BIOMED EUROPE is used according to the protocol recommended by the manufacturer.
(§6) The operating conditions are the following: • reaction medium: 0.1 M Tris-HCl, 10 mM CaCl2, 5 mM DTT, pH 7.4; • enzyme/substrate ratio: 140 mU/μmol of filaggrin containing 10% arginine or 4 mU/μmol of arginine; • incubation: between 0 and 60 min at 50° C.; • termination of the reaction: heating 3 min in LAEMMLI buffer.
(§7) 1 μl of each sample is deposited on an electrophoresis gel (PHAST®-SDS gel 12.5% PHARMACIA), and the electrophoresis is carried out with the PHAST-SYSTEM® apparatus (PHARMACIA), under the conditions recommended by the manufacturer. […] Dermatol. 105, 432, (1995)] at the concentration of 0.2 μg/ml (FIG. 3b).
(§8) The results are illustrated by FIG. 3 • Lane 1: BSA (1 hour, 50° C.) • Lane 2: BSA+PAD (1 hour, 50° C.) • Lane 3: fil-gst (1 hour, 50° C.) • Lane 4: fil-gst+PAD (15 minutes, 50° C.) • Lane 5: fil-gst+PAD (15 minutes, 50° C.) • Lane 6: fil-gst+PAD (30 minutes, 50° C.) • Lane 7: fil-gst+PAD (1 hour, 50° C.) • Lane 8: fil-gst+PAD+inhibitor (1 hour, 50° C.)

[4] = system: AFAs present in sera from patients suffering from RA; experiment: Immunoblot of fil-gst deiminated in vitro by PAD, revealed with a pool of 5 RA sera; type: binding, human; conditions: for recognition by the sera from patients suffering from RA: pool of 5 RA sera 1/2000
Protocol: as §4, §5, §6, §7
as §8, with “[…])” for “50° C.) • Lane 4: fil-gst+PAD (15 minutes, 50° C.)”

[5] = system: AFAs of the sera from patients suffering from RA; experiment: Immunoblot of citrullinated and noncitrullinated fil-gst with individual sera and purified AFAs; type: binding, human; conditions: citrullinated fil-gst; purified AFAs 4 μg/ml
Protocol: In a first series of experiments (FIG. 4a), the reactivity of noncitrullinated fil-gst (fil-gst alone, 30 minutes at 50° C.) and fil-gst citrullinated with PAD 30 minutes at 50° C. is compared with human sera composed of: • sera from normal persons: T(2) and T(3) • sera from patients suffering from RA having high AFA titers which are detected by immunotransfer on acido-neutral variants of human filaggrin, and by indirect immunofluorescence on cryosections of rat esophagus: RA(6) and RA(8); • anti-filaggrin antibodies purified from the serum from a patient suffering from RA by affinity chromatography, on a column grafted with acido-neutral isoforms of human filaggrin: AFA.
A positive control is also carried out with the monoclonal antibody AHF2.
In a second series of experiments (FIG. 4b), the reactivity of citrullinated fil-gst is confirmed with a largest series of sera: • 4 control sera: T(4) • 4 sera from patients suffering from RA not having AFAs detected by immunotransfer or by indirect immunofluorescence: RA(4) • 9 sera from patients suffering from RA with high AFA titers (three of them (*) were also tested in the first series of experiments): RA(9) • anti-filaggrin antibodies purified by affinity chromatography, on a column grafted with the acido-neutral isoforms of filaggrin, from a pool of sera from 40 patients suffering from RA: AFA • the monoclonal antibodies AHF (1-7). […]

[6] = Control serum (normal serum) diluted 1/120
[7] = Pool of AFAs (purified from 45 RA sera), 5 μg/ml
[8] = Pool of AFAs (purified from 45 RA sera), 10 μg/ml
[9] = Pool of AFAs (purified from 45 RA sera), 20 μg/ml
[10] = after citrullination (PAD 30 minutes at 50° C.), 0.5 μg antigen per deposit
[11] = not citrullinated, 0.5 μg antigen per deposit
[12] = citrullinated (PAD 30 minutes at 50° C.)

## AVFs: acido-neutral variants of human epidermal filaggrin [reference compound]
[1]; natural antigen as such, 0.5 μg per deposit
  recognition by the serum from the patient suffering from RA: recognizes

## NH2-EQSADSSRHSGSGH-COOH (H-EQSADSS[Cit]HSGSGH-OH) [Peptide E-12-H]
[2]; [6]
  ratio of OD at 492 nm: citrullinated peptide signal/noncitrullinated peptide signal: 1
[2]; [7]
  ratio of OD at 492 nm: citrullinated peptide signal/noncitrullinated peptide signal: 2.45
[2]; [8]
  ratio of OD at 492 nm: citrullinated peptide signal/noncitrullinated peptide signal: 2.42
[2]; [9]
  ratio of OD at 492 nm: citrullinated peptide signal/noncitrullinated peptide signal: 1.82
[2]; RA1 serum, AFAs 10 μg/ml
  ratio of OD at 492 nm: citrullinated peptide signal/noncitrullinated peptide signal: 1.32
[2]; RA1 serum, AFAs 20 μg/ml
  ratio of OD at 492 nm: citrullinated peptide signal/noncitrullinated peptide signal: 1.20
[2]; RA2 serum, AFAs 5 μg/ml
  ratio of OD at 492 nm: citrullinated peptide signal/noncitrullinated peptide signal: 10.44
[2]; RA2 serum, AFAs 10 μg/ml
  ratio of OD at 492 nm: citrullinated peptide signal/noncitrullinated peptide signal: 11.51
[2]; RA2 serum, AFAs 20 μg/ml
  ratio of OD at 492 nm: citrullinated peptide signal/noncitrullinated peptide signal: 8.38

## NH2-ESSRDGSRHPRSHD-COOH (H-ESSRDGSRHPRSHD-OH; not fully specified; printed as NH2-ESSRDGSRHPRSHD-COOH) [Peptide E-12-D]
[2]; [6]
  ratio of OD at 492 nm: citrullinated peptide signal/noncitrullinated peptide signal: 1.076
[2]; [7]
  ratio of OD at 492 nm: citrullinated peptide signal/noncitrullinated peptide signal: 1.77
[2]; [8]
  ratio of OD at 492 nm: citrullinated peptide signal/noncitrullinated peptide signal: 1.63
[2]; [9]
  ratio of OD at 492 nm: citrullinated peptide signal/noncitrullinated peptide signal: 1.48
[2]; RA1 serum, AFAs 10 μg/ml
  ratio of OD at 492 nm: citrullinated peptide signal/noncitrullinated peptide signal: 1.42
[2]; RA1 serum, AFAs 20 μg/ml
  ratio of OD at 492 nm: citrullinated peptide signal/noncitrullinated peptide signal: 1.85
[2]; RA2 serum, AFAs 5 μg/ml
  ratio of OD at 492 nm: citrullinated peptide signal/noncitrullinated peptide signal: 2.42
[2]; RA2 serum, AFAs 10 μg/ml
  ratio of OD at 492 nm: citrullinated peptide signal/noncitrullinated peptide signal: 3.77
[2]; RA2 serum, AFAs 20 μg/ml
  ratio of OD at 492 nm: citrullinated peptide signal/noncitrullinated peptide signal: 5.57

## NH2-SQDRDSQAQSEDSERRSASASRNHRGSAQEQSRDGSR-COOH (H-SQDRDSQAQSEDSERRSASASRNHRGSAQEQSRDGSR-OH; also: citrullinated, positions not given here; listed as Homo sapiens) [Peptide S-35-R, peptide of 37 amino acids, amino acids 155 to 191 of a human filaggrin unit, 7 arginine residues; tested before and after PAD]
[1]; [10]
  recognition by the serum from the patient suffering from RA: not recognized
[1]; [11]
  recognition by the serum from the patient suffering from RA: not recognized
Monoclonal antibody AHF4; [12]
  recognition by AHF4: does not recognize
Monoclonal antibody AHF4; not citrullinated
  recognition by AHF4: does not recognize

## NH2-STGHSGSQHSHTTTQGRSDASRGSSGSRSTSRETRDQEQSGDGSRHSGS-COOH (H-STGHSGSQHSHTTTQGRSDASRGSSGSRSTSRETRDQEQSGDGSRHSGS-OH; also: citrullinated, positions not given here; listed as Homo sapiens) [Peptide S-47-S, peptide of 49 amino acids, amino acids 71 to 119 of a human filaggrin unit, 6 arginine residues; tested before and after PAD]
[1]; [10]
  recognition by the serum from the patient suffering from RA: recognized
Monoclonal antibody AHF4; [12]
  recognition by AHF4: recognizes
Monoclonal antibody AHF4; not citrullinated
  recognition by AHF4: recognizes

B1: fil-gst: recombinant human filaggrin unit fused with glutathione S-transferase (GST), expressed in E. coli (protein)
chain: QSESAHGRTGTSTGGRQGSHHKQARDSSRHSTSQEGQDTIHGHPGSSSGGRQGSHYEQLVDRSGHSGSHHSHTTSQGRSDASHGHSGSRSASRQTRNDEQSGDGSRHSGSRHHEASSRADSSGHSQVGQGQSEGPRTSRNWGSSFSQDSDSQGHSEDSERWSGSASRNHHGSAQEQLRDGSRHPRSHQEDRAGHGHSADSSRQSGTRHTQTSSGGQAASSHEQARSSAGERHGSHHQQSADSSRHSGIGHGQASSAVRDSGHRGYSGSQASDNEGHSEDSDTQSVSAHGQAGSHQQSHQESARGRSGETSGHSGSFLYQVSTHE
modifications: left off: a dimerising Fc or GST
notes: recombinant human filaggrin unit fused with glutathione S-transferase (GST), expressed in E. coli
[3]; citrullinated
  recognition by monoclonal antibody AHF2: recognizes all the fragments
[3]; not citrullinated
  recognition by monoclonal antibody AHF2: recognizes all the fragments
[1]; [11]
  recognition by the serum from the patient suffering from RA: does not recognize
Monoclonal antibody AHF4; [12]
  recognition by AHF4: recognizes
Monoclonal antibody AHF4; not citrullinated
  recognition by AHF4: recognizes
[4]; PAD reacted for 60 minutes at 50° C. (lane 7), sera 1/2000
  reactivity with the pool of RA sera: increase in reactivity
[4]; absence of citrullination reaction (1 h, 50° C. without PAD, lane 3)
  recognition by the sera from patients suffering from RA: not recognized
[4]; from 5 minutes of citrullination with PAD at 50° C. (lane 4)
  recognition by the sera from patients suffering from RA: detected

B2: citrullinated fil-gst: fil-gst deiminated in vitro by rabbit muscle peptidylarginine deiminase (protein)
chain: B1 chain
modifications: non-natural residues; left off: a dimerising Fc or GST
notes: fil-gst deiminated in vitro by rabbit muscle peptidylarginine deiminase
[1]; [10]
  recognition by the serum from the patient suffering from RA: recognizes
[5]
  reactivity of antifilaggrin autoantibodies purified by affinity chromatography from RA sera: recognition of the fragments corresponding to lanes 1 to 5

Reference: US6890720B1, “Antigens derived from filaggrin and their use for diagnosing rheumatoid polyarthritis” (Biomerieux, priority 1996, dated 2005)
